In EP4389751A1, “HETEROCYCLIC COMPOUNDS AND USES THEREOF” (Kumquat Biosciences Inc., priority 2021, dated 2024):

Biological target: T1, K-Ras G12S (Homo sapiens, UniProt P01116, G12S)
T1 construct: made in house; host or cells: E. coli (e.g., BL21 (DE3))
Experiment: HTRF assay of the K-Ras / SOS1 interaction
Type: biochemical
Settings: IC50 (against K-Ras G12D) to IC50 (against K-Ras G12S)
Excerpt: This assay can be also used to assess a selective inhibition or reduction of signaling output of a mutant Ras protein relative to a wildtype, or relative to a different mutant Ras protein. For example, the equilibrium interaction of wildtype Kras or K-Ras mutant (e.g., wildtype or a mutant thereof including those mentioned in Example 6) with SOS1 (e.g., hSOS1) can be assessed as a proxy or an indication for a subject compound's ability to bind and inhibit Ras protein. HTRF assay detects from (i) a fluorescence resonance energy transfer (FRET) donor (e.g., antiGST-Europium) that is bound to GST-tagged K-Ras mutant to (ii) a FRET acceptor (e.g., anti-6His-XL665) bound to a His-tagged hSOS 1.
The assay buffer can contain ~5 mM HEPES pH 7.4, -150 mM NaCI, - 1 mM DTT, 0.05% BSA and 0.0025% (v/v) Igepal. A Ras working solution is prepared in an assay buffer containing typically a suitable amount of the protein construct (e.g., GST-tagged K-Ras mutant) and the FRET donor (e.g., antiGST-Eu(K) from Cisbio, France). A SOS1 working solution is prepared in an assay buffer containing suitable amount of the protein construct (e.g., His-hSOS1) and the FRET acceptor (e.g., anti-6His-XL665 from Cisbio, France). A suitable amount of the protein construct will depend on the range of activity or range of IC50 values being detected or under investigation. For detecting IC50 within a range of 500 nM, the protein constructs of the same range of molarity can be utilized.
A fixed volume of DMSO with or without test compound is transferred into a 384-well plate. Ras working solution is added to all wells of the test plate. SOS1 working solution is added to all wells except for those that are subsequently filled the inhibitor control solution. Upon incubation for about 10 minutes or longer, the fluorescence is measured with a M1000Pro plate reader (Tecan) using HTRF detection (excitation 337nm, emission 1 : 620nm, emission 2: 665nm). Compounds are tested in duplicates at different concentrations (for example, 10 µM, 2.5 µM, 0.63 µM, 0.16 µM, 0.04 µM, 0.01 µM test compound). The ratiometric data (i.e., emission 2 divided by emission 1) is used to calculate IC50 values against Ras using GraphPad Prism (GraphPad software). Following this general procedure, samples were tested with or without a subject compound disclosed herein including compounds exemplified in Table 3 to assess their abilities to inhibit K-Ras G12S relative to another mutant (e.g., K-Ras G12D). Signaling output measured in terms of IC50 values can be obtained, a ratio of IC50 against one mutant relative to another mutant can be calculated. For instance, a selective reduction of K-Ras G12S signaling output can be evidenced by a ratio greater than one. In particular, a selective reduction of K-Ras G12S signaling relative to K-Ras G12D signaling is evidenced as the ratio of IC50 (against K-Ras G12D) to IC50 (against K-Ras G12S) is greater than 1. […]

Compound | Ratio of IC50 KRAS G12D vs. IC50 KRAS G12S
C[C@H](Oc1nc(N2CCCCC3(CN(C(=O)n4cncn4)C3)C2)c2cc(Cl)c(-c3ccc(F)c4sc(N)c(C#N)c34)c(F)c2n1)[C@@H]1CCCN1C [Compound A167, 4-(4-(2-(1H-1,2,4-triazole-1-carbonyl)-2,6-diazaspiro[3.6]decan-6-yl)-6-chloro-8-fluoro-2-((S)-1-((S)-1-methylpyrrolidin-2-yl)ethoxy)quinazolin-7-yl)-2-amino-7-fluorobenzo[b]thiophene-3-carbonitrile] | A (A: indicates that the ratio of IC50 against KrasG12D vs. IC50 against KrasG12S is 1-fold or greater)
Nc1nc2c(-c3c(Cl)cc4c(N5C[C@H]6CC[C@@H](C5)N6C(=O)n5ccc(F)n5)nc(OC[C@@]56CCCN5C[C@H](F)C6)nc4c3F)ccc(F)c2s1 [Compound A214, ((1R,5S)-3-(7-(2-amino-7-fluorobenzo[d]thiazol-4-yl)-6-chloro-8-fluoro-2-(((2R,7aS)-2-fluorotetrahydro-1H-pyrrolizin-7a(5H)-yl)methoxy)quinazolin-4-yl)-3,8-diazabicyclo[3.2.1]octan-8-yl)(3-fluoro-1H-pyrazol-1-yl)methanone] | A (A: indicates that the ratio of IC50 against KrasG12D vs. IC50 against KrasG12S is 1-fold or greater)
Cc1nc(C(C)C)nn1C(=O)N1CC2(CCCN(c3nc(OC[C@@]45CCCN4C[C@H](F)C5)nc4c(F)c(-c5ccc(F)c6sc(N)c(C#N)c56)c(Cl)cc34)C2)C1 [Compound A240, 2-amino-4-(6-chloro-8-fluoro-2-(((2R,7aS)-2-fluorotetrahydro-1H-pyrrolizin-7 a(5H)-yl)methoxy)-4-(2-(3-isopropyl-5-methyl-1H-1,2,4-triazole-1-carbonyl)-2,6-diazaspiro[3.5]nonan-6-yl)quinazolin-7-yl)-7-fluorobenzo[b]thiophene-3-carbonitrile] | A (A: indicates that the ratio of IC50 against KrasG12D vs. IC50 against KrasG12S is 1-fold or greater)
N#Cc1c(N)sc2c(F)ccc(-c3c(Cl)cc4c(N5CCOC6(CN(C(=O)n7cncn7)C6)C5)nc(OC[C@@]56CCCN5C[C@H](F)C6)nc4c3F)c12 [Compound A232, 4-(4-(2-(1H-1,2,4-triazole-1-carbonyl)-5-oxa-2,8-diazaspiro[3.5]nonan-8-yl)-6-chloro-8-fluoro-2-(((2R,7aS)-2-fluorotetrahydro-1H-pyrrolizin-7a(5H)-yl)methoxy)quinazolin-7-yl)-2-amino-7-fluorobenzo[b]thiophene-3-carbonitrile] | A (A: indicates that the ratio of IC50 against KrasG12D vs. IC50 against KrasG12S is 1-fold or greater)
1-(7-(7-(2-amino-7-fluorobenzo[d]thiazol-4-yl)-6-chloro-8-fluoro-2-(((2R,7aS)-2-fluorotetrahydro-1H-pyrrolizin-7a(5H)-yl)methoxy)quinazolm-4-yl)-2,7-diazaspiro[3.5]nonane-2-carbonyl)-1H-imidazole-4-carbonitrile [Compound A179] | A (A: indicates that the ratio of IC50 against KrasG12D vs. IC50 against KrasG12S is 1-fold or greater)
N#Cc1cnn(C(=O)N2C3CCC2CN(c2nc(OC[C@@]45CCCN4C[C@H](F)C5)nc4c(F)c(-c5cc(O)cc6ccccc56)ccc24)C3)c1 [Compound A120, 1-(3-(8-fluoro-2-(((2R,7aS)-2-fluorotetrahydro-1H-pyrrolizin-7a(5H)-yl)methoxy)-7-(3-hydroxynaphthalen-1-yl)quinazolin-4-yl)-3,8-diazabicyclo[3.2. 1]octane-8-carbonyl)-1H-pyrazole-4-carbonitrile] | A (A: indicates that the ratio of IC50 against KrasG12D vs. IC50 against KrasG12S is 1-fold or greater)
Nc1nc2c(-c3c(Cl)cc4c(NC5CCC6(C5)CN(C(=O)n5cncn5)C6)nc(OC[C@@]56CCCN5C[C@H](F)C6)nc4c3F)ccc(F)c2s1 (stereo partly drawn) [Compound A142, (6-((7-(2-amino-7-fluorobenzo[d]thiazol-4-yl)-6-chloro-8-fluoro-2-(((2R,7aS)-2-fluorotetrahydro-1H-pyrrolizin-7a(5H)-yl)methoxy)quinazolin-4-yl)amino)-2-azaspiro[3.4]octan-2-yl)(1H-1,2,4-triazol-1-yl)methanone] | A (A: indicates that the ratio of IC50 against KrasG12D vs. IC50 against KrasG12S is 1-fold or greater)
Nc1nc2c(-c3c(Cl)cc4c(NC5CCN(C(=O)Nc6ncccn6)CC5)nc(OC[C@@]56CCCN5C[C@H](F)C6)nc4c3F)ccc(F)c2s1 [Compound A262, 4-((7-(2-amino-7-fluorobenzo[d]thiazol-4-yl)-6-chloro-8-fluoro-2-(((2R,7aS)-2-fluorotetrahydro-1H-pyrrolizin-7a(5H)-yl)methoxy)quinazolin-4-yl)amino)-N-(pyrimidin-2-yl)piperidine-1-carboxamide] | A (A: indicates that the ratio of IC50 against KrasG12D vs. IC50 against KrasG12S is 1-fold or greater)
C[C@H](Oc1nc(N2CCN(C(=O)Nc3nccs3)CC(O)C2)c2cc(Cl)c(-c3ccc(F)c4sc(N)c(C#N)c34)c(F)c2n1)[C@@H]1CCCN1C (stereo partly drawn) [Compound A118, 4-(7-(2-amino-3-cyano-7-fluorobenzo[b]thiophen-4-yl)-6-chloro-8-fluoro-2-((S)-1-((S)-1-methylpyrrolidin-2-yl)ethoxy)quinazolin-4-yl)-6-hydroxy-N-(thiazol-2-yl)-1,4-diazepane-1-carboxamide] | A (A: indicates that the ratio of IC50 against KrasG12D vs. IC50 against KrasG12S is 1-fold or greater)
Nc1nc2c(-c3c(Cl)cc4c(NC5CCN(C(=O)Nc6ccncn6)CC5)nc(OC[C@@]56CCCN5C[C@H](F)C6)nc4c3F)ccc(F)c2s1 [Compound A147, 4-((7-(2-amino-7-fluorobenzo[d]thiazol-4-yl)-6-chloro-8-fluoro-2-(((2R,7aS)-2-fluorotetrahydro-1H-pyrrolizin-7a(5H)-yl)methoxy)quinazolin-4-yl)amino)-N-(pyrimidin-4-yl)piperidine-1-carboxamide] | A (A: indicates that the ratio of IC50 against KrasG12D vs. IC50 against KrasG12S is 1-fold or greater)
N#Cc1c(N)sc2c(F)ccc(-c3c(Cl)cc4c(N5CCN(CC6CC6)C6(CN(C(=O)n7cncn7)C6)C5)nc(OC[C@@]56CCCN5C[C@H](F)C6)nc4c3F)c12 [Compound A139, 2-amino-4-(6-chloro-4-(5-(cyclopropylmethyl)-2-(1H-1,2,4-triazole-1-carbonyl)-2,5,8-triazaspiro[3.5]nonan-8-yl)-8-fluoro-2-(((2R,7aS)-2-fluorotetrahydro-1H-pyrrolizin-7a(5H)-yl)methoxy)quinazolin-7-yl)-7-fluorobenzo[b]thiophene-3-carbonitrile] | A (A: indicates that the ratio of IC50 against KrasG12D vs. IC50 against KrasG12S is 1-fold or greater)
Nc1nc2c(-c3c(Cl)cc4c(N5CCN(C6CN(C(=O)n7cncn7)C6)CC5)nc(OC[C@@]56CCCN5C[C@H](F)C6)nc4c3F)ccc(F)c2s1 [Compound A267, (3-(4-(7-(2-amino-7-fluorobenzo[d]thiazol-4-yl)-6-chloro-8-fluoro-2-(((2R,7aS)-2-fluorotetrahydro-1H-pyrrolizin-7a(5H)-yl)methoxy)quinazolm-4-yl)piperazin-1-yl)azetidin-1-yl)(1H-1,2,4-triazol-1-yl)methanone] | A (A: indicates that the ratio of IC50 against KrasG12D vs. IC50 against KrasG12S is 1-fold or greater)
Nc1nc2c(-c3c(Cl)cc4c(N5CCC6(CCN(C(=O)n7cncn7)C6)C5)nc(OC[C@@]56CCCN5C[C@H](F)C6)nc4c3F)ccc(F)c2s1 (stereo partly drawn) [Compound A175, (7-(7-(2-amino-7-fluorobenzo[d]thiazol-4-yl)-6-chloro-8-fluoro-2-(((2R,7aS)-2-fluorotetrahydro-1H-pyrrolizin-7a(5H)-yl)methoxy)quinazolin-4-yl)-2,7-diazaspiro[4.4]nonan-2-yl)(1H-1,2,4-triazol-1-yl)methanone] | A (A: indicates that the ratio of IC50 against KrasG12D vs. IC50 against KrasG12S is 1-fold or greater)
